Experimental data as given in ChEMBL document CHEMBL2157896, “Engineering pH-gated transitions for selective and efficient double-strand DNA photocleavage in hypoxic tumors” (J Med Chem, 2011).

Columns and labels:
Assay type in all cases: nucleic-acid assay
Nucleic Acid [1] = assay: Induction of photochemical DNA cleavage in Escherichia coli pBR322 assessed as form I level at 15 uM in pH 6.0 phosphate buffer measured after 10 mins of UV irradiation
Nucleic Acid [2] = assay: Induction of photochemical DNA cleavage in Escherichia coli pBR322 assessed as form I level at 15 uM in pH 7.0 phosphate buffer measured after 2 mins of UV irradiation
Nucleic Acid [3] = assay: Induction of DNA cleavage in Escherichia coli pBR322 at 5 uM in pH 6.0 phosphate buffer measured after of UV irradiation
Nucleic Acid [4] = assay: Induction of photochemical DNA cleavage in Escherichia coli pBR322 assessed as form 2 level at 15 uM in pH 8.0 phosphate buffer measured after 0.5 mins of UV irradiation
Nucleic Acid [5] = assay: Induction of photochemical DNA cleavage in Escherichia coli pBR322 assessed as form 3 level at 15 uM in pH 8.0 phosphate buffer measured after 10 mins of UV irradiation
Nucleic Acid [6] = assay: Induction of photochemical DNA cleavage in Escherichia coli pBR322 assessed as form I level at 15 uM in pH 6.0 phosphate buffer measured after 6 mins of UV irradiation
Nucleic Acid [7] = assay: Induction of photochemical DNA cleavage in Escherichia coli pBR322 assessed as form 2 level at 15 uM in pH 8.0 phosphate buffer measured after 2 mins of UV irradiation
Nucleic Acid [8] = assay: Induction of photochemical DNA cleavage in Escherichia coli pBR322 assessed as form 3 level at 15 uM in pH 6.0 phosphate buffer measured after 1 min of UV irradiation

- Activity (Nucleic Acid [1]): 0%
- Activity (Nucleic Acid [2]): 45.8%
- Activity (Nucleic Acid [3]): 50%
- Activity (Nucleic Acid [4]): 13.6%
- Activity (Nucleic Acid [5]): 21.3%
- Activity (Nucleic Acid [6]): 0%
- Activity (Nucleic Acid [7]): 22.2%
- Activity (Nucleic Acid [8]): 17.1%
Structure (SMILES): NCCCC[C@H](N)C(=O)NCCCC[C@H](N)C(=O)Nc1ccc(C#Cc2c(F)c(F)nc(F)c2F)cc1.O=C(O)C(F)(F)F
